The values below come from publication PMC5403781, “Heterologous expression of a Streptomyces cyaneus laccase for biomass modification applications” (AMB Express, 2017).

Structures are written as SMILES. Where two headings read alike, the source gives them in different places.

Assay [1] has as its system ScLac. To be noted: read-out: ABTS; 100 mM MES pH 5.5, 30 °C; free enzyme, copper-loaded; substrate 5–95 µM.
Assay [2] has as its system T1, ScLac.
T1 construct: C-terminal His6 tag (pET-22b(+), NdeI/XhoI), expressed in E. coli BL21 (DE3) Star; primers encode N-terminus METDIIER and C-terminal HGAGHTG before the LE-His6 tag; copper-loaded with CuSO4 after purification
Put plainly: spectrophotometric oxidation, […] nm. The format is biochemical, Streptomyces cyaneus. Particulars: 100 mM MES pH 5.5, 30 °C; free enzyme, copper-loaded; substrate 5–95 µM; read-out: DMP.

Assay [3] relates to T1, ScLac. Put plainly: spectrophotometric oxidation, […] nm. The format is biochemical, Streptomyces cyaneus. To be noted: 100 mM MES pH 5.5, 30 °C; free enzyme, copper-loaded; substrate 5–95 µM; read-out: Guaiacol.

On to `CCn1c(=NN=c2sc3cc(S(=O)(=O)O)ccc3n2CC)sc2cc(S(=O)(=O)O)ccc21` [ABTS], for which the Km with ScLac [1] stood at 33.5 ± 27.9 µM. As for `COc1cccc(OC)c1O` [DMP, 2,6-dimethoxyphenol], the Km with ScLac [2] worked out at 202 ± 34.8 µM. On to `COc1ccccc1O` [guaiacol], for which the Km in the assay with ScLac [3] turned out to be 5.4 ± 1.9 µM.
